Data published in patent publication US20040138301A1, “Chemical uncouplers for the treatment of obesity” (priority 2002, published 2004).
Read-outs that look alike come from different tables or passages of the source.

Experiments:
FSK-4 cells = test: Assay (IV): Glucose utilisation in FSK-4 cells; type: cell-based; settings: FSK-4 cells; for EC50: glucose utilisation, 24 hours incubation, read-out: FSK4 EC50; for Emax: maximal efficacy relative to FCCP, read-out: FSK4 Emax (% of FCCP)
Procedure: Assay (IV): Glucose Utilisation in FSK-4 Cells
The assay measures indirectly the activity of the respiratory chain in FSK-4 cells by using D-(6-^3H(N))-glucose. The ^3H-proton will first be released in the TCA cyclus and transported to the respiratory chain where it will be incorporated into water. The water is thereafter separated from the D-(6-^3H(N))-glucose by evaporation. Finally, the radioactivity in the water is determined using a Topcounter.
FSK-4 cells obtained from ATCC (Maryland, USA), are cultured in growth medium (McCoy's medium with the following addition 100 units/ml penicillin and streptomycin and 10% FCS (fetal calf serum)) at 37° C. and 5% CO2. All media are obtained by Gibco (Life Technologies, Maryland, USA) where not otherwise mentioned.
At day zero the cells are harvested using trypsin-EDTA and washed in assay medium (MEM medium with the following addition 1× non-essential amino acids (M7145, 2 mM glutamin, 100 units/ml pencillin and streptomycin, 0.0075% sodium bicarbonate, 1 mM sodium pyrovate and 2% horse serum) using centrifugation. The cells are plated into single StripPlates wells (Corning B.V.Life Sciences, The Netherlands) that are placed into 24-well plates (Corning B.V.Life Sciences, The Netherlands) with a concentration of 1,5×10^4 cells/100 μl assay medium/well. The cells are then incubated at 37° C. and 5% CO2 overnight.
(§1) The next day the compounds to be tested are diluted to different concentrations in DMSO (Sigma, Missouri, USA) to 100 times final concentration. They are then diluted to a final concentration in assay medium containing 10 μCi/ml D-(6-^3H(N))-glucose (PerkinElmer Life Sciences Inc., Boston, USA). The medium is removed from the cells and 200 μl of the compound dilutions are added in duplicates. The cells are then incubated for another 24 hours at 37° C. and 5% CO2. Finally the cells are lysed by adding 50 μl 10% TCA (tri-chloroacetatic acid). 300 μl of sterile water is then added to the 24-wells that surrounds the StripPlate wells. The plate is sealed with Top-seal-tape (Packard, PerkinElmer Life Sciences Inc., Boston, USA) and the plate is incubated in a heating cupboard at 50° C. to equilibrium the radioactive water formed in the respiratory chain into the water in the 24-well plate by evaporate. The plates incubate for 8 hours where the heating cupboard is turned off. The top seal is removed when the samples have reached room temperature. One ml scintillation liquid (Packard Microscient, PerkinElmer Life Sciences Inc., Boston, USA) is added to all the samples and the radioactivity is determined using a Topcounter (Packard, PerkinElmer Life Sciences Inc., Boston, USA). Non-specific activity is determined by evaporating 200 μl of the dilution medium containing the D-(6-^3H(N))-glucose into 300 μl sterile water, and total radioactivity is determined by counting 5 μl assay medium with 10 μCi/ml D-(6-^3H(N))-glucose.
All calculations are done using GraphPad Prism 3.0 (GraphPad software, Inc.) From concentration-response curves the half maximal concentration (EC50) and maximal efficacy (Emax) are calculated using equation 1.
Y=Bottom+(Top−Bottom)/(1+10^((LogEc50-X)*slope))
(§2) X is the logarithm of the molar concentration of the test compound.
Y is the degree of stimulation caused by the compound measured as percentage of the basal stimulation.
The calculated EC50 value is then used to determine the concentrations used in a study where the Hill slope is calculated.
From the double logarithmic plot of the increase in glucose utilisation and the compound concentration the Hill slope is calculated accordingly to equation 2.
It is presumed, that the maximal increase in the glucose utilisation (as measured in the FSK-4 glucose utilisation assay) is limited by the capacity of the metabolism.

HEP-G2 cells = test: cells; settings: for EC50 / Emax / EC (Emax): Homo sapiens; for EC50: HepG2, 3 h; for HEP-G2 Tox: human, 3 h
Procedure: Assay (I): Glucose utilisation in a human hepatocytes cell line (HEP-G2 cells)
The assay measures indirectly the activity of the respiratory chain in HEP-G2 cells by using D-(3-^3H(N))-glucose. The ^3H-proton will first be released during the metabolism of glucose where it will be incorporated into water. The water is thereafter separated from the D-(3-^3H(N))-glucose by evaporation. Finally, the radioactivity in the water is determined using a Topcounter.
HEP-G2 cells obtained from ATCC (Maryland, USA), are cultured in assay medium (MEM medium) with the following addition 1× non-essential amino acids (M7145, 2 mM glutamine, 100 units/ml penicillin and streptomycin, 0.0075% sodium bicarbonate, 1 mM sodium pyrovate and 0.5% BSA (Bovin Serum Albumin, Sigma Missouri, USA)) at 37° C. and 5% CO2. All media are obtained by Gibco (Life Technologies, Maryland, USA) where not otherwise mentioned.
At day zero the cells are harvested using trypsin-EDTA and washed in assay medium using centrifugation. […] The cells are then incubated at 37° C. and 5% CO2 overnight.
as §1, with “diluted” for “diluted to different concentrations”, “μCi/ml D-(3-^3H(N))-glucose” for “μCi/ml D-(6-^3H(N))-glucose”, “another 3” for “another 24”, “TCA (trichloroacetic” for “TCA (tri-chloroacetatic”, “the D-(3-^3H(N))-glucose” for “the D-(6-^3H(N))-glucose”, “μCi/ml D-(3-^3H(N))-glucose.” for “μCi/ml D-(6-^3H(N))-glucose.”
The cpm (counts per minute) representing the non-specific radioactivity in the D-(3-^3H(N))-glucose is subtracted from all incubated values. Then mean basal value (samples without any compound added) is subtracted from the values of all stimulated samples (samples added different concentrations of the different test compounds). All these calculations are done using GraphPad Prism 3.0 (GraphPad software, Inc.). The maximal stimulation caused by the test compounds is calculated in percentage of maximal stimulation caused by either DNP or FCCP.
When calculating the concentration-response curve the maximal glucose utilisation stimulated by FCCP or DNP (subtracted non-specific and basal values) is converted to 100% and all the other values are expressed in percentage of this value. Using these percentage values and the compound concentration a concentration-response curve is calculated using sigmoidal dose-response (variable slope) equation (all the calculations are done by GraphPad Prism 3.0 (GraphPad software, Inc.));
Y=Bottom+(Top−Bottom)/(1+10^((LogEC50-X)*slope))
as §2
Y is the degree of stimulation caused by the compound measured as a percentage of the maximal stimulation achieved by use of FCCP or DNP.
The results achieved with these concentrations are used to determine the slope in this area using the following equation: […]

[1] = read-out: HEP-G2 EC50, HEP-G2 cells, glucose utilisation, 3 hours incubation
[2] = HepG2, read-out: HEP-G2 Emax (% of FCCP), HEP-G2 cells, maximal stimulation relative to FCCP
[3] = HepG2, read-out: HEP-G2 Emax (μM), HEP-G2 cells, concentration at which Emax is achieved (CEmax)

Structure (SMILES)	EC50 (FSK-4 cells)	EC50 (HEP-G2 cells; [1])	Emax (FSK-4 cells)	Emax (HEP-G2 cells; [2])	EC (Emax) (HEP-G2 cells; [3])	HEP-G2 Tox (HEP-G2 cells)	EC50 (HEP-G2 cells; read-out: HEP-G2 EC50)	Emax (HEP-G2 cells; HepG2, read-out: HEP-G2 Emax (% of FCCP))	EC (Emax) (HEP-G2 cells; HepG2, read-out: HEP-G2 Emax (μM))
Cc1c(Cl)cc(C(C)(C)C)c(O)c1C(=O)Nc1ccc([N+](=O)[O-])cc1Cl [Example 5, 3-Tert-Butyl-5-Chloro-N-(2-Chloro-4-Nitrophenyl)-2-Hydroxy-6-Methyl-Benzamide]	100 nM	60 nM	100%	95%	0.3 µM				
Cc1ccc(C(C)(C)C)c(O)c1C(=O)Nc1ccc([N+](=O)[O-])cc1Cl [Example 10]	300 nM	370 nM	80%	100%	3 µM				
CC(C)(C)c1cc(C[P+](c2ccccc2)(c2ccccc2)c2ccccc2)cc(C(C)(C)C)c1O [Example 11, (3,5-Di-Tert-Butyl-4-Hydroxybenzyl)Triphenylphosphonium Bromide]	300 nM	700 nM	90%	75%	3 µM	Tox 0.03 mM			
CC(C)(C)c1cc(C[P+](C2CCCCC2)(C2CCCCC2)C2CCCCC2)cc(C(C)(C)C)c1O [Example 12, (3,5-Di-Tert-Butyl-4-Hydroxybenzyl)Tricyclohexylphosphonium Bromide]	300 nM	1200 nM	85%	70%	10 µM	Tox 0.03 mM			
CCCC[P+](CCCC)(CCCC)Cc1cc(C(C)(C)C)c(O)c(C(C)(C)C)c1.[Br-] [Example 13, (3,5-Di-Tert-Butyl-4-Hydroxybenzyl)Tributylphosphonium Bromide]	1000 nM	2900 nM	85%	70%	10 µM	Tox 0.03 mM			
CCCCCCCC[P+](CCCCCCCC)(CCCCCCCC)Cc1cc(C(C)(C)C)c(O)c(C(C)(C)C)c1.[Br-] [Example 14, (3,5-Di-Tert-Butyl-4-Hydroxybenzyl)Trioctylphosphonium Bromide]	200 nM	1100 nM	100%	100%	10 µM	Tox 0.01 mM			
CCOC(=O)/C(C#N)=C/c1cc(C(C)(C)C)c(O)c(C(C)(C)C)c1 [Example 15, 2-Cyano-3-(3,5-Di-Tert-Butyl-4-Hydroxyphenyl)-Acrylic Acid Ethyl Ester]	2000 nM	700 nM	65%	100%	3 µM				
CCOC(=O)C(=Cc1cc(C(C)(C)C)c(O)c(C(C)(C)C)c1)C(=O)OCC [Example 16, 2-(3,5-Di-Tert-Butyl-4-Hydroxy-Benzylidene)-Malonic Acid Diethyl Ester]	30000 nM	11000 nM	45%	100%	100 µM				
Cc1c(Cl)cc(C(C)(C)C)c(O)c1C(=O)Nc1ccc(C#N)c(C(F)(F)F)c1 [Example 43, 3-Tert-Butyl-5-Chloro-N-(4-Cyano-3-Trifluoromethyl-Phenyl)-2-Hydroxy-6-Methyl-Benzamide]	300 nM		80%				850 nM	95%	3 µM

Continued, in another order:

EC50 (FSK-4 cells)	EC50 (HEP-G2 cells; [1])	Structure (SMILES)	Emax (FSK-4 cells)	Emax (HEP-G2 cells; [2])	EC (Emax) (HEP-G2 cells; [3])	HEP-G2 Tox (HEP-G2 cells)	EC50 (HEP-G2 cells; read-out: HEP-G2 EC50)	Emax (HEP-G2 cells; HepG2, read-out: HEP-G2 Emax (% of FCCP))	EC (Emax) (HEP-G2 cells; HepG2, read-out: HEP-G2 Emax (μM))
6000 nM	600 nM	CC(C)(C)c1cc(C=C2C(=O)c3ccccc3C2=O)cc(C(C)(C)C)c1O [Example 18, 2-(3,5-Di-Tert-Butyl-4-Hydroxy-Benzylidene)-Indan-1,3-Dione]	100%	80%	3 µM				
1100 nM	7000 nM	N#CC(C#N)=Cc1c(-c2ccc(Cl)cc2)[nH]c2ccccc12 [Example 19, 2-[[2-(4-Chlorophenyl)-1H-Indol-3-Yl]Methylene]Malononitrile]	55%	100%	100 µM				
26000 nM	50000 nM	Clc1ccc(-c2cc3ccccc3[nH]2)cc1 [Example 20, 2-(4-Chlorophenyl)-Indole]	90%	55%	300 µM				
1100 nM	3300 nM	Cc1c(Cl)cc(C(C)(C)C)c(O)c1C(=O)Nc1ccc(Cl)c(C(F)(F)F)c1 [Example 42, 3-Tert-Butyl-5-Chloro-N-(4-Chloro-3-Trifluoromethyl-Phenyl)-2-Hydroxy-6-Methyl-Benzamide]	75%	89%	10 µM				
6600 nM		Cc1[nH]c2c(Br)cccc2c1C=C(C#N)C#N [Example 98, 2-(7-Bromo-2-Methyl-1H-Indol-3-Ylmethylene)Malononitrile]	105%						
1700 nM		Cc1[nH]c2ccc(Br)cc2c1C=C(C#N)C#N [Example 99, 2-(5-Bromo-2-Methyl-1H-Indol-3-Ylmethylene)Malononitrile]	40%						
